# Patent US8546440B2, “Substituted bicyclic imidazole derivatives as gamma secretase modulators” (Janssen Pharmaceuticals, Inc., priority 2008, dated 2013)
# Legend:
# [1] = system: Aβ42; assay: Screening for γ-secretase-modulating activity, Method 1: Aβ42 sandwich ELISA in supernatant of SKNBE2 cells carrying APP 695 wild type (Tables 12a, 12b); type: cell-based
# Protocol: (§1) Screening was carried out using SKNBE2 cells carrying the APP 695—wild type, grown in Dulbecco's Modified Eagle's Medium/Nutrient mixture F-12 (DMEM/NUT-mix F-12) (HAM) provided by Gibco (cat no. 31330-38) containing 5% Serum/Fe supplemented with 1% non-essential amino acids. Cells were grown to near confluency.
# (§2) The screening was performed using the assay as described in Citron et al (1997) Nature Medicine 3: 67. Briefly, cells were plated in a 96-well plate at about 10^5 cells/ml one day prior to addition of compounds. Compounds were added to the cells in Ultraculture (Lonza, BE12-725F) supplemented with 1% glutamine (Invitrogen, 25030-024) for 18 hours. The media were assayed by two sandwich ELISAs, for Aβ42 and Aβtotal. Toxicity of the compounds was assayed by WST-1 cell proliferation reagent (Roche, 1 644 807) according to the manufacturer's protocol.
# To quantify the amount of Aβ42 in the cell supernatant, commercially available Enzyme-Linked-Immunosorbent-Assay (ELISA) kits were used (Innotest® β-Amyloid(1-42), Innogenetics N.V., Ghent, Belgium). The Aβ42 ELISA was performed essentially according to the manufacturer's protocol. Briefly, the standards (dilutions of synthetic Aβ1-42) were prepared in polypropylene Eppendorf with final concentrations of 8000 down to 3.9 pg/ml (1/2 dilution step). Samples, standards and blanks (100 μl) were added to the anti-Aβ42-coated plate supplied with the kit (the capture antibody selectively recognizes the C-terminal end of the antigen). The plate was allowed to incubate 3 h at 25° C. in order to allow formation of the antibody-amyloid complex. Following this incubation and subsequent wash steps a selective anti-Aβ-antibody conjugate (biotinylated 3D6) was added and incubated for a minimum of 1 hour in order to allow formation of the antibody-Amyloid-antibody-complex. After incubation and appropriate wash steps, a Streptavidine-Peroxidase-Conjugate was added, followed 30 minutes later by an addition of 3,3′,5,5′-tetramethylbenzidine (TMB)/peroxide mixture, resulting in the conversion of the substrate into a coloured product. This reaction was stopped by the addition of sulfuric acid (0.9 N) and the colour intensity was measured by means of photometry with an ELISA-reader with a 450 nm filter.
# (§3) To obtain the values reported in Table 12a, the sigmoidal dose response curves were analysed by computerised curve-fitting, with percent of inhibition plotted against compound concentration. A 4-parameter equation (model 205) in XLfit was used to determine the IC50. The top and the bottom of the curve were fixed to 100 and 0, respectively, and the hill slope was fixed to 1. The IC50 represents the concentration of a compound that is required for inhibiting a biological effect by 50% (Here, it is the concentration where Aβ peptide level is reduced by 50%).
# (§4) To obtain the values reported in Table 12b, the data are calculated as percentage of the maximum amount of amyloid Beta 42 measured in the absence of the test compound. The sigmoidal dose response curves were analyzed using non-linear regression analysis with percentage of the control plotted against the log concentration of the compound. A 4-parameter equation was used to determine the IC50. The values reported in Table 12b are averaged IC50 values.
# [2] = system: Aβtotal; assay: Screening for γ-secretase-modulating activity, Method 1: Aβtotal sandwich ELISA in supernatant of SKNBE2 cells carrying APP 695 wild type (Tables 12a, 12b); type: cell-based
# Protocol: as §1, §2
# To quantify the amount of Aβtotal in the cell supernatant, samples and standards were added to a 6E10-coated plate. The plate was allowed to incubate overnight at 4° C. in order to allow formation of the antibody-amyloid complex. Following this incubation and subsequent wash steps a selective anti-Aβ-antibody conjugate (biotinylated 4G8) was added and incubated for a minimum of 1 hour in order to allow formation of the antibody-Amyloid-antibody-complex. After incubation and appropriate wash steps, a Streptavidine-Peroxidase-Conjugate was added, followed 30 minutes later by an addition of Quanta Blu fluorogenic peroxidase substrate according to the manufacturer's instructions (Pierce Corp., Rockford, Ill.).
# as §3, §4
# [3] = Homo sapiens, Method 1, Table 12a, SKNBE2 cells carrying APP 695 wild type, compounds 18 hours, ELISA, curve top and bottom fixed to 100 and 0, hill slope 1
# [4] = Homo sapiens, Table 12b, Method 1, SKNBE2 cells carrying APP 695 wild type, cell supernatant ELISA, averaged IC50 values, percentage of control vs log concentration
# [5] = Homo sapiens, Table 12b, Method 1, SKNBE2 cells carrying APP 695 wild type, cell supernatant ELISA, averaged IC50 values
# [6] = Method 1, Table 12a, SKNBE2 cells carrying APP 695 wild type, compounds 18 hours, ELISA, curve top and bottom fixed to 100 and 0, hill slope 1
# [7] = Table 12b, Method 1, SKNBE2 cells carrying APP 695 wild type, cell supernatant ELISA, averaged IC50 values, percentage of control vs log concentration
# [8] = Table 12b, Method 1, SKNBE2 cells carrying APP 695 wild type, cell supernatant ELISA, averaged IC50 values
"IC50 [1, 4] [nM]","IC50 [2, 5] [nM]",SMILES,also measured
17,> 3020,COc1cccc(-c2nc3c(Nc4ccc(-n5cnc(C)c5)cc4)cccn3c2C)c1 [Compound 64],"IC50 [1, 3]: 13 nM; IC50 [2, 3]: > 3000 nM"
40,> 3020,COc1cccc(-c2nc3c(Nc4ccc(-n5cnc(C)n5)c(OC)c4)cccn3c2C)c1 [Compound 67],"IC50 [1, 3]: 51 nM; IC50 [2, 3]: > 3000 nM"
126,> 3020,Cc1ccc(C(F)(F)F)cc1-c1cn2cccc(Nc3ccc(-n4ncnc4C)cc3)c2n1 [Compound 75],
4360,> 10000,COc1cc(Nc2cccn3cc(C)nc23)ccc1-n1cnc(C)n1 [Compound 77],"IC50 [1, 3]: 2690 nM; IC50 [2, 3]: > 10000 nM"
398,> 3020,Cc1ncn(-c2ccc(Nc3cccn4cc(-c5ccc(F)cc5C)nc34)cc2)n1 [Compound 90],
72,18600,Cc1ncn(-c2ccc(Nc3cccn4cc(-c5ccc(F)cc5C)nc34)cc2F)n1 [Compound 91],
245,> 10000,Cc1cc(F)ccc1-c1cn2cccc(Nc3ccc(-n4ncnc4C)c(F)c3)c2n1 [Compound 131],
468,> 3020,Cc1ncn(-c2ccc(Nc3cccn4c(C)c(-c5ccccc5Cl)nc34)c(F)c2)n1 [Compound 133],

# Second part, the compound before the results:
SMILES,"IC50 [1, 4] [nM]","IC50 [2, 5] [nM]",also measured
COc1cc(Nc2cccn3c(-c4cccc(-c5ccccc5)c4)cnc23)ccc1-n1cnc(C)c1 [Compound 61],437,> 10000,"IC50 [1, 3]: 423 nM; IC50 [2, 3]: > 10000 nM"
COc1cc(Nc2cccn3c(C(=O)c4ccc(F)cc4)cnc23)ccc1-n1cnc(C)c1 [Compound 62],417,> 3020,"IC50 [1, 3]: 477 nM; IC50 [2, 3]: > 10000 nM"
COc1cccc(-c2nc3c(Nc4ccc(-n5ccnc5C)cc4)cccn3c2C)c1 [Compound 65],661,17800,"IC50 [1, 3]: 782 nM; IC50 [2, 3]: 27200 nM"
COc1cccc(-c2nc3c(Nc4ccc(-n5cnc(C)c5)cn4)cccn3c2C)c1 [Compound 68],,,"IC50 [1, 6]: 18 nM; IC50 [1, 7]: 18 nM; IC50 [2, 6]: > 1000 nM; IC50 [2, 8]: > 3020 nM"
CCCCc1cn2cccc(Nc3ccc(-n4cnc(C)n4)cc3)c2n1 [Compound 76],,,"IC50 [1, 7]: 1950 nM; IC50 [2, 8]: > 10000 nM"
Cc1ncn(-c2ccc(Nc3cccn4cc(-c5cc(C(F)(F)F)ccc5C)nc34)nc2)n1 [Compound 81],,,"IC50 [1, 7]: 380 nM; IC50 [2, 8]: > 10000 nM"
Cc1ncn(-c2ccc(Nc3cccn4cc(-c5ccccc5C)nc34)nc2)n1 [Compound 82],,,"IC50 [1, 7]: 562 nM; IC50 [2, 8]: > 3020 nM"
Cc1ncn(-c2ccc(Nc3cccn4cc(-c5cc(C(F)(F)F)ccc5C)nc34)cn2)n1 [Compound 84],,,"IC50 [1, 7]: 115 nM; IC50 [2, 8]: > 3020 nM"
COc1cc(Nc2cccn3cc(-c4ccccc4F)nc23)ccc1-n1cnc(C)c1 [Compound 88],174,> 10000,"IC50 [1, 3]: 184 nM; IC50 [2, 3]: > 3000 nM"
COc1cc(Nc2cccn3cc(-c4ccc(F)cc4C)nc23)ccc1-n1cnc(C)n1 [Compound 89],85,> 3020,
COc1cc(Nc2cccn3c(CNC=O)c(-c4cccc(F)c4)nc23)ccc1-n1cnc(C)c1 [Compound 100],,,"IC50 [1, 7]: 11 nM; IC50 [2, 8]: > 3020 nM"
COc1cc(Nc2cccn3c(CO)c(-c4ccc(F)cc4)nc23)ccc1-n1cnc(C)c1 [Compound 101],13,> 1000,
COc1cc(Nc2cccn3cc(C4CC4)nc23)ccc1-n1cnc(C)c1 [Compound 116],295,> 3020,
COc1cc(Nc2cc(C(F)(F)F)cn3cc(Cc4ccc(F)cc4)nc23)ccc1-n1cnc(C)n1 [Compound 146],,,"IC50 [1, 7]: 32 nM; IC50 [2, 8]: > 3020 nM"
COc1cc(Nc2cc(C(F)(F)F)cn3cc(COc4ccc(F)cc4)nc23)ccc1-n1cnc(C)n1 [Compound 147],42,> 3020,
COc1cc(Nc2cc(C(F)(F)F)cn3cc(CO)nc23)ccc1-n1cnc(C)n1 [Compound 152],1780,> 3020,
